Results taken from US20200188388A1, “METHODS AND COMPOSITIONS FOR PO[…] DRUGS AND REDUCING THEIR SIDE EFFECTS” (RVX THERAPEUTICS LTD., priority 2016, published 2020).

Experiments:
Wistar rats [1] = assay: Rotenone-induced PD: severe oligokinesia in open field test; type: in vivo, rat; details: oligokinesia ++-+++ in OF test
Protocol: Locomotive activity of rats was tested in the “open field” test. […] Registration of horizontal and vertical locomotive activity was carried out in first day for rats with high selection locomotive activity (total walking time with not less than 12 seconds and the number of vertical uprights at least 4), 60 minutes before the first administration of rotenone. To identify the rotenone-induced oligokinesia in each experimental group the locomotive activity in the open field test was examined again 2 hours after the administration of rotenone on days 12 and 19 of the experiment.
(§1) Quantification of oligokinesia in points: 0 points—the highest horizontal activity (walking total time more than 12 seconds) and high vertical activity (number of vertical posts) more than 3; 1 point—reducing the horizontal activity (total walking time 7-11 seconds) and a decrease in vertical activity (the number of vertical columns 1-3); 2 points—a significant reduction in horizontal activity (total walking time 2-6 seconds) and the absence of vertical activity (the number of vertical columns 0-1); 3 points—the absence of horizontal activity (total walking time 0-1 seconds) and the absence of vertical activity (number of vertical columns 0). In each experimental group 120 minutes after administration of rotenone on days 12 and 19 of experiment the number of rats with severe oligokinesia (2-3 points) in % of the total number of rats in group was determined.
Locomotive activity of rats was tested in the “open field” test. […] Registration of horizontal and vertical locomotive activity was carried out in first day for rats with high selection locomotive activity (total walking time with not less than 12 seconds and the number of vertical uprights at least 4), 60 minutes before the first administration of rotenone. To identify the rotenone-induced oligokynesia in each experimental group the locomotive activity in the open field test was examined again 2 hours after the administration of rotenone on days 12 and 19 of the experiment.
as §1, with “of oligokynesia” for “of oligokinesia”

Wistar rats [2] = assay: Rotenone model: hyperkinetic side effect in open field test (days 10 and 18); type: in vivo, rat; details: locomotive activity in OF test increased more than 50% vs first day
Protocol: Anti-parkinsonian effect of therapy in rats with rotenone-induced PD was estimated according to elimination of extrapyramidal disorders (catalepsy) and oligokinesia (rapid decreased amplitude and velocity of repeated movements) in the “open field” test. The neuro-protective effect of therapy was evaluated by the elimination of ataxia limb dystonia and mortality in rats with rotenone-induced PSP. Hyperkinetic side action (hyper-locomotion) was evaluated by increased horizontal and vertical activity in the open field at the 10th and 18th day of the experiment, calculated in % compared to the first day of the experiment.
Ataxia and limb dystonia registration was performed twice daily, 30 minutes before administration of rotenone and 180 minutes after administration of rotenone. For each experimental group on a daily basis, throughout the whole period of observation number of rats with severe ataxia and limb dystonia (++−+++) and mortality in % of the total number of rats in group was determined. The neuro-protective effect of therapy (effects on rate of ataxia, limb dystonia and lethality) in rats with PSP was determined at days 12 and 19 of the experiment as reducing the number of rats with severe ataxia limb dystonia and mortality in % compared to control. Side hyperkinetic effects were evaluated in the “open field” test. In this test the locomotive activity in rats is determined. […] Registration of horizontal and vertical locomotive activity in OF assay was performed on the 10th and 18th day of the experiment, within 40 minutes after administration of the substance and 5 minutes before administration of rotenone. Side hyperkinetic effects was evaluated by the number of rats with a significant (at least 50% compared with the first day of the experiment) increase in horizontal and vertical activity (hyperkinesia) as a % of the total number of rats in group.
Anti-parkinsonian effect of therapy in rats with rotenone-induced parkinsonism was estimated according to elimination of extrapyramidal disorders (catalepsy) and oligokinesia in the “open field” test. The neuro-protective effect of therapy was evaluated by the elimination of ataxia and mortality in rats with rotenone-induced PSP. Hyperkinetic side action (hyper-locomotion) was evaluated by increased horizontal and vertical activity in the open field at the 10th and 18th day of the experiment, calculated in % compared to the first day of the experiment.
The neuro-protective effect in the experimental groups of rats with rotenone-induced PSP was evaluated due the elimination of ataxia and mortality caused by neurotoxic action of rotenone. Ataxia is typical incoordination neurotoxic effect of rotenone manifested in uncoordinated movements and hyper-locomotion, replaced by hypokinesia and stereotypes, and in severe cases a complete violation of antigravity reflexes, falling on its side and akinesia. Assessment of the severity of ataxia in scores was performed using the following scale: (+) uncoordinated movement, hyperkinesia; (++) significant incoordination, hypokinesia, stereotypes, falling on its side; (+++) complete violation of antigravity reflexes, akinesia. Ataxia registration was performed twice daily, 30 minutes before administration of rotenone and 180 minutes after administration of rotenone. For each experimental group on a daily basis, throughout the whole period of observation number of rats with severe ataxia (++−+++) and mortality in % of the total number of rats in group was determined. The neuro-protective effect of therapy (effects on rate of ataxia and lethality) in rats with PSP was determined at days 12 and 19 of the experiment as reducing the number of rats with severe ataxia and mortality in % compared to control. Side hyperkinetic effects were evaluated in the “open field” test. In this test the locomotive activity in rats is determined. […]

SMILES	Severe oligokinesia (% of group) (Wistar rats [1]; Day 12, levodopa 10 mg/kg oral)	Severe oligokinesia (% of group) (Wistar rats [1]; Day 12, levodopa 20 mg/kg oral)	Severe oligokinesia (% of group) (Wistar rats [1]; Day 19, levodopa 10 mg/kg oral)	Severe oligokinesia (% of group) (Wistar rats [1]; Day 19, levodopa 20 mg/kg oral)	Hyperkmesia (% of group) (Wistar rats [2]; Day 10, levodopa 10 mg/kg oral)	Hyperkmesia (% of group) (Wistar rats [2]; Day 10, levodopa 20 mg/kg oral)	Hyperkmesia (% of group) (Wistar rats [2]; Day 18, levodopa 10 mg/kg oral)	Hyperkmesia (% of group) (Wistar rats [2]; Day 18, levodopa 20 mg/kg oral)	Severe oligokinesia (% of group) (Wistar rats [1]; Day 12, memantine 5 mg/kg oral)	Severe oligokinesia (% of group) (Wistar rats [1]; Day 19, memantine 5 mg/kg oral)	Hyperkmesia (% of group) (Wistar rats [2]; Day 10, memantine 5 mg/kg oral)	Hyperkmesia (% of group) (Wistar rats [2]; Day 18, memantine 5 mg/kg oral)
N[C@@H](Cc1ccc(O)c(O)c1)C(=O)O [Levodopa, L-3,4-dihydroxyphenylalanine]	86 % of group	50 % of group	100 % of group	63 % of group	0 % of group	88 % of group	0 % of group	75 % of group				
CC12CC3CC(C)(C1)CC(N)(C3)C2 [Memantine, memantine]									50 % of group	50 % of group	40 % of group	60 % of group
